Laboratory results reported in patent US8124389B2, “Crystal structure of aldehyde dehydrogenase and methods of use thereof” (The Board of Trustees of the Leland Stanford Junior …, priority 2008, dated 2012).
Changes are numbered by the printed parent chain. Each block holds one molecule with its values, some of them ahead of it.

What was measured:
Type in all cases: biochemical
ALDH2*2 [1] = target: T1, ALDH2*2 (Homo sapiens, UniProt P05091, E504K); assay: Dehydrogenase activity kinetic assay (25 mM BES, pH 7.5); conditions: for Hill Slope / Vmax^(app) of daidzin inhibition curve / Vmin^(app) of daidzin inhibition curve: 100 μM propionaldehyde, 10 mM NAD+
T1 construct: made in house; host or cells: E. coli
T1 sequence (P05091 18-517 E504K): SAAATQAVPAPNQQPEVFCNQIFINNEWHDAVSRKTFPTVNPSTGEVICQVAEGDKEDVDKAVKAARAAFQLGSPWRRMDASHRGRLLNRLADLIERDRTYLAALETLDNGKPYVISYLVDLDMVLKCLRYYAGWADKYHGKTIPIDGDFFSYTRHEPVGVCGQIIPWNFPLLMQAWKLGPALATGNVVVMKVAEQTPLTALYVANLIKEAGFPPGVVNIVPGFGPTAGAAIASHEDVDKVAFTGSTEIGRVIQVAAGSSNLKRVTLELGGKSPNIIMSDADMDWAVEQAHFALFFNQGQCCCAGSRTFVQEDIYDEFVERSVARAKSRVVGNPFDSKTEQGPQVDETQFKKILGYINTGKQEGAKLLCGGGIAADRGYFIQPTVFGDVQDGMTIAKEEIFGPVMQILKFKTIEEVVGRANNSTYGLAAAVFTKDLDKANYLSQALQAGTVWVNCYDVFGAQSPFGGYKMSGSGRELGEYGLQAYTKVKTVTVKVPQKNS
Method: (§1) (A) Wild-type ALDH2 at 0 μM or 10 μM Alda-1 and (B) ALDH2*2 at 0 μM or 50 μM Alda-1. NAD^+concentrations were 0.5 mM for wild-type ALDH2 and 10 mM for ALDH2*2. Lines show fits to 4-parameter logistic curve.
(§2) ALDH2 and ALDH2*2 were produced and purified using an E. coli expression system as previously described (Larson et al., 2005, J. Biol. Chem. 280, 30550-30556 and Larson et al., 2007, J. Biol. Chem., 282, 12940-12950). All enzyme assays were performed in 25 mM BES, pH 7.5 and included a final concentration of 2% (v/v) DMSO as a cosolvent in all cases whether or not Alda-1 was present. Enzyme concentrations in the dehydrogenase assays were between 0.03 and 0.06 μM for ALDH2 and between 0.3 and 0.5 μM for ALDH2*2. Esterase assays utilized 0.97 mM para-nitrophenylacetate (pNPA) as a standard substrate concentration and enzyme concentrations for 0.06 μM for ALDH2 and 0.7 μM for ALDH2*2. All kinetic data were analyzed with SigmaPlot (v10.0, StatSys). All activation data for the dehydrogenase and esterase reactions were fit to the expression v=Vo+{(Vmax[S])/(KAct+[S])}, where Vo is the initial velocity for the reaction in the absence of activator and KAct is the concentration of activator required for half-maximal activation. All single-vary experiments for Alda-1 activation utilized a minimum of 10 different concentrations across a range from 0-200 μM. […] All data represent the average of a minimum of three independent experiments with at least two different enzyme preparations.

wild-type ALDH2 [2] = target: T2, wild-type ALDH2 (Homo sapiens, UniProt P05091); assay: as above; conditions: for Hill Slope / Vmax^(app) of daidzin inhibition curve / Vmin^(app) of daidzin inhibition curve: 100 μM propionaldehyde, 0.5 mM NAD+; for Vm/Vo / Vmax^(app) / EC50: 25 mM BES, pH 7.5, 0.5 mM NAD+; for EC50: read-out: KAct^(app)
T2 construct: made in house; host or cells: E. coli
T2 sequence (P05091 18-517): T1 sequence (P05091 18-517 E504K) with K487E
Method: as §1, §2

[3] = target: T3, heterotetrameric ALDH2 (wild type/mutant) (Homo sapiens, UniProt P05091, E504K); assay: Enzyme activation of recombinant ALDH2 proteins by Alda-1 (FIG. 2); conditions: Alda-1 at 100 μM; 20 μg recombinant protein
T3 construct: made in house
T3 sequence (P05091 18-517): T1 sequence (P05091 18-517 E504K) with K487E
T3 sequence (P05091 18-517 E504K): T1 sequence (P05091 18-517 E504K)
Method: (§3) FIG. 2 depicts enzyme activation of homotetrameric wild type ALDH2 (homo wild type), heterotetrameric ALDH2 (hetero wild type/mutant; comprising a mixture of wild-type and mutant monomers), and homotetrameric mutant ALDH2 by Alda-1(100 μM). Enzymatic activity of recombinant ALDH2 proteins (20 μg each) is presented in percentage using homotetrameric wild type enzyme as a 100% control (n=3, **p<0.01 vs. control).
(§4) Alda-1 is an ALDH2 agonist. […] Chen et al. (2008) Science 321:1493-1495; PMID: 18787169.

[4] = target: T4, homotetrameric mutant ALDH2*2 (Homo sapiens, UniProt P05091, E504K); assay: as above; conditions: Alda-1 at 100 μM; 20 μg recombinant protein
T4 construct: made in house
T4 sequence (P05091 18-517 E504K): T1 sequence (P05091 18-517 E504K)
Method: as §3, §4

[5] = target: T5, homotetrameric wild type ALDH2*1/*1 (Homo sapiens, UniProt P05091); assay: as above; conditions: Alda-1 at 100 μM; 20 μg recombinant protein
T5 construct: made in house
T5 sequence (P05091 18-517): T1 sequence (P05091 18-517 E504K) with K487E
Method: as §3, §4

ALDH2*2 [6] = target: T1, ALDH2*2; assay: Esterase activity assay (p-nitrophenylacetate hydrolysis)
Method: as §2
(§5) The ability of Alda-1 to stimulate the hydrolysis of p-nitrophenylacetate both in the presence and absence of coenzyme was examined.

wild-type ALDH2 [7] = target: T2, wild-type ALDH2; assay: as above; conditions: for Vmax / EC50 / Vo: 0.97 mM p-Nitrophenylacetate; for EC50: read-out: KAct^(app); for Vo: velocity in absence of activator
Method: as §2, §5

ALDH2*2 [8] = target: T1, ALDH2*2; assay: Dehydrogenase activity kinetic assay (25 mM BES, pH 7.5)
[9] = fixed 50 μM Alda-1, NAD+ as varied activator, 0.97 mM p-Nitrophenylacetate

Compound: O=c1c(-c2ccc(O)cc2)coc2cc(O[C@@H]3O[C@H](CO)[C@@H](O)[C@H](O)[C@H]3O)ccc12 [Daidzin, daidzin, reference compound]
Hill Slope (ALDH2*2 [1]; 50 μM Alda-1): 1.1 +/− 0.1 | Vmax^(app) of daidzin inhibition curve (ALDH2*2 [1]; 50 μM Alda-1): 23.0 ± 1.7 min⁻¹ | Vmin^(app) of daidzin inhibition curve (ALDH2*2 [1]; 50 μM Alda-1): 0.2 ± 0.2 min⁻¹ | Hill Slope (ALDH2*2 [1]; no Alda-1): 1.1 +/− 0.1 | Vmax^(app) of daidzin inhibition curve (ALDH2*2 [1]; no Alda-1): 11.6 ± 1.3 min⁻¹ | Vmin^(app) of daidzin inhibition curve (ALDH2*2 [1]; no Alda-1): 0.2 ± 0.6 min⁻¹ | Hill Slope (wild-type ALDH2 [2]; 10 μM Alda-1): 1.0 +/− 0.1 | Vmax^(app) of daidzin inhibition curve (wild-type ALDH2 [2]; 10 μM Alda-1): 74.9 ± 12.1 min⁻¹ | Vmin^(app) of daidzin inhibition curve (wild-type ALDH2 [2]; 10 μM Alda-1): 2.5 ± 5.2 min⁻¹ | Hill Slope (wild-type ALDH2 [2]; no Alda-1): 0.9 +/− 0.3 | Vmax^(app) of daidzin inhibition curve (wild-type ALDH2 [2]; no Alda-1): 61.5 ± 6.1 min⁻¹ | Vmin^(app) of daidzin inhibition curve (wild-type ALDH2 [2]; no Alda-1): 5.1 ± 4.7 min⁻¹

increase of enzymatic activity [3]: 2.2 fold | increase of enzymatic activity [4]: 11 fold | increase of enzymatic activity [5]: 2.1 fold | effect on daidzin inhibition (ALDH2*2 [1]; 50 μM Alda-1): antagonized daidzin inhibition | effect on ALDH2 activity with phenylacetaldehyde or DACA (wild-type ALDH2 [2]): little effect | effect on daidzin inhibition (wild-type ALDH2 [2]; 10 μM Alda-1): antagonized daidzin inhibition | effect on dehydrogenase activity with aromatic aldehydes (benzaldehyde, phenylacetaldehyde, DACA) (wild-type ALDH2 [2]; 20 μM Alda-1, saturating concentrations of substrate, pH 7.5): minimal effects | Vm/Vo (wild-type ALDH2 [2]; 100 μM Acetaldehyde): 1.8 +/− 0.1 | Vmax^(app) (wild-type ALDH2 [2]; 100 μM Acetaldehyde): 107 ± 12 min⁻¹ | EC50 (wild-type ALDH2 [2]; 100 μM Acetaldehyde): 0.98 µM | Vm/Vo (wild-type ALDH2 [2]; 100 μM Butyraldehyde): 1.3 +/− 0.1 | Vmax^(app) (wild-type ALDH2 [2]; 100 μM Butyraldehyde): 86.6 ± 3.1 min⁻¹ | EC50 (wild-type ALDH2 [2]; 100 μM Butyraldehyde): 1.8 µM | Vm/Vo (wild-type ALDH2 [2]; 100 μM Propionaldehyde): 1.7 +/− 0.1 | Vmax^(app) (wild-type ALDH2 [2]; 100 μM Propionaldehyde): 78.5 ± 9.6 min⁻¹ | EC50 (wild-type ALDH2 [2]; 100 μM Propionaldehyde): 5.1 µM | effect on ALDH2 activity with phenylacetaldehyde or DACA at high concentrations (wild-type ALDH2 [2]; Alda-1 >100 μM): weakly inhibitory | effect on activity with benzaldehyde (wild-type ALDH2 [2]; up to maximum concentration used, 200 μM Alda-1): little effect | Vmax (ALDH2*2 [6]; 1.0 mM NAD+, 0.97 mM p-Nitrophenylacetate): 14.7 ± 1.3 min⁻¹ | EC50 (ALDH2*2 [6]; 1.0 mM NAD+, 0.97 mM p-Nitrophenylacetate, read-out: KAct^(app)): 11.2 µM | Vo (ALDH2*2 [6]; 1.0 mM NAD+, 0.97 mM p-Nitrophenylacetate, velocity in absence of activator): 1.36 ± 0.28 min⁻¹ | increase of ester hydrolysis (ALDH2*2 [6]; combined Alda-1 and NAD+): over 100 fold | Vmax (ALDH2*2 [6]; [9]): 49.5 ± 4.3 min⁻¹ | Vo (ALDH2*2 [6]; [9]): 0.64 ± 0.19 min⁻¹ | Vmax (ALDH2*2 [6]; no NAD+, 0.97 mM p-Nitrophenylacetate): 2.3 ± 0.2 min⁻¹ | EC50 (ALDH2*2 [6]; no NAD+, 0.97 mM p-Nitrophenylacetate, read-out: KAct^(app)): 16.1 µM | Vo (ALDH2*2 [6]; no NAD+, 0.97 mM p-Nitrophenylacetate, velocity in absence of activator): 0.40 ± 0.03 min⁻¹ | EC50 (ALDH2*2 [6]; with Alda-1, read-out: half-maximal activating concentration of NAD+ for the esterase reaction in presence of Alda-1 (lowered from 7.5 mM)): 2800 µM | Vmax (wild-type ALDH2 [7]; 0.5 mM NAD+): 248 ± 22 min⁻¹ | EC50 (wild-type ALDH2 [7]; 0.5 mM NAD+): 2.6 µM | Vo (wild-type ALDH2 [7]; 0.5 mM NAD+): 96.3 ± 2.2 min⁻¹ | Vmax (second line, paired with Ki^(app)) (wild-type ALDH2 [7]; 0.5 mM NAD+, higher Alda-1 concentrations, antagonism with NAD+): 242 ± 14 min⁻¹ | Ki (wild-type ALDH2 [7]; 0.5 mM NAD+, higher Alda-1 concentrations, antagonism with NAD+, read-out: Ki^(app)): 328 µM | increase of ester hydrolysis (wild-type ALDH2 [7]; combined Alda-1 and NAD+): 10 fold | Vmax (wild-type ALDH2 [7]; no NAD+): 181 ± 6.8 min⁻¹ | EC50 (wild-type ALDH2 [7]; no NAD+): 3.4 µM | Vo (wild-type ALDH2 [7]; no NAD+): 24.9 ± 2.0 min⁻¹ | EC50 (ALDH2*2 [8]; covariation NAD+ (0.5-10 mM) and Alda-1 (0 to 30 μM), non-essential activator fit, read-out: Kact): 16 ± 3 µM | decrease of apparent Km for NAD+ (ALDH2*2 [8]; covariation NAD+ and Alda-1): 6.7 fold | increase of Vmax (ALDH2*2 [8]; covariation NAD+ and Alda-1): 2 fold | β-factor (modifier on Vmax) (ALDH2*2 [8]; covariation NAD+ and Alda-1, non-essential activator fit): 2.0±0.2
Compound: O=C(NCc1ccc2c(c1)OCO2)c1c(Cl)cccc1Cl [Alda-1, N-(1,3-benzodioxol-5-ylmethyl)-2,6-dichlorobenzamide]
